Experimental data: article PMC11134608, “UBR5 forms ligand-dependent complexes on chromatin to regulate nuclear hormone receptor stability” (Molecular cell, 2023)
Residues, ends and D or L forms follow the SMILES beside them. *: point of attachment. Cbz = O=C(OCc1ccccc1)*

Columns and labels:
[1] = system: ATRA-induced gene expression in NB4 cells; test: RNA sequencing of NB4 cells; assay type: cell-based, human; settings: NB4, MG132 or DMSO, ATRA 0, 8, 24 h
Protocol: Cell lines were expanded, treated with ligand, and incubated at 37C. Cells were pelleted by centrifugation for 5 minutes, washed with cold PBS, and RNA was isolated by RNeasy kit (Qiagen) per manufacturer’s instructions. RNA was sent to Novogene for library preparation and sequencing, or prepared for sequencing (NEBNext, New England Biolabs) and sequenced on an Illumina NextSeq 550 sequencer.
Paired-end reads were aligned to the hg38.p13[81],[82] reference genome with the STAR[83] (v5.2.7b) aligner as part of the RSEM[99] command line tool. Gene transcript abundance was further quantified from aligned fragments using RSEM to generate a gene-by-sample matrix of expected counts. Differential expression was tested, as with the ChIP-seq data, using the DESeq[88],[93]2 and ashr[94] pipeline, this time calculating sample-specific scale factor offset using the method of median-ratio as implemented in the R package EBSeq[100] (v1.36.0). For plotting in heatmaps, genes were selected based on ChIP-seq peak annotation and subset.

RARA and UBR5 = test: BRET assay of RARA and UBR5; assay type: cell-based, human; settings: ± 9-cis RA, n = 3
Excerpt: Bioluminescence resonance energy transfer (BRET) experiments were done using the NanoBRET PPI kit (Promega, N1821) according to manufacturer’s instructions.

[2] = system: RARA/RXRA heterodimer (pre-formed complex with fluorescein-labelled NCOA1 peptide); test: Fluorescence polarization, competitive reverse titration of unlabeled peptides; assay type: binding, human; settings: with ATRA; 10 nM tracer, 0.5 μM RARA/RXRA, competitor 0–85 μM; 20 mM HEPES pH 7.4, 110 mM NaCl; room temperature; variable slope fit; duplicates
Protocol: Fluorescein-labelled NCOA1 peptide residues […] (Flc-[…]) was used as a fluorescent tracer as described previously.[71] Increasing amounts of RARA/RXRA heterodimer (0.1–26 μM final concentration) were mixed with tracer (10 nM final concentration) in a 384-well microplate (784076, Greiner) at room temperature. The interaction was measured in a final buffer containing 20 mM HEPES pH 7.4, 110 mM NaCl, 500 μM TCEP, 1% Glycerol, 0.1% (v/v) pluronic acid with or without 100 μM all-trans-retinoic acid. A PHERAstar FS microplate reader (BMG Labtech) equipped with a fluorescence polarization filter unit was used to determine changes in fluorescence polarization. The polarization units were converted to fraction bound, defined as (mPfree – mP) / (mPfree – mPbound), as described previously.[72] […]
A. RARAreporter degradation in HEK293cells withCRISPR-editedUBR5 deficientof itsHECTdomain inthepresence or absenceof ATRA (n=3 two-sided ttest).B. Ubiquitylation assayof a pseudo-primedRARA/RXRAsubstrate, generated as His-3Ub~RARA and His-3Ub~RXRA linearfusions in E.coli.Wild type UBR5 can rapidly branch and extend Ub chains on the substrate, however indicated mutants of the UBA domain severely hinder chain extension. […] Fluorescence polarization (FP) experiment showing forward titrationof RARA/RXRA intoa fluorescein-labelled NCOA1 peptide (residues 686-698). […]

UBR5-RARA = test: UBR5 pull-down competition with NCOA1; assay type: binding, human; settings: NCOA at 0.5, 5 and 10× molar excess relative to UBR5, with ATRA
Excerpt: Figure 2. UBR5 competes with nuclear coactivators for the conserved hydrophobic cleft of NRs (A) Schematic of RARA domain architecture; NTD, N-terminal domain; DBD, DNA-binding domain; LBD, ligand-binding domain. (B) Degradation of RARA reporters containing 4–5 surface-exposed alanine mutations per helix, relative to untreated (DMSO) (n = 3 two-sided t test). See Figure S2 for detailed amino acid substitutions. (C) Degradation of RARA reporters containing glutamate-substituted residues within the H3/H4 hydrophobic cleft. (n = 3 two-sided t test). […] FLAG-UBR5 (15 pmol) was pre-bound to a large excess of His-RARA in the presence of ATRA and excess RARA protein washed away. Increasing amounts of full-length NCOA1 protein were then added to outcompete the UBR5-RARA interaction. NCOA was titrated with a 0.5, 5, and 10× molar excess relative to UBR5. (F) Relative abundances in RARA-GFP IP-MS of NCOR1, NCOA1, and UBR5 normalized to RARA abundance following 0, 4, and 16 h of ATRA treatment.
12 μL of FLAG M2 slurry were equilibrated with binding buffer (25 mM HEPES pH 7.4, 125 mM NaCl, 0.05% TWEEN-20). The resin was pelleted and excess buffer removed. 60 μL of fresh binding buffer was re-added, followed by addition of 15 pmol (2.5 μL ofa6 μM solution) of purified FLAG-UBR5 protein and incubated on a rotating wheel at 4°C for 60–90 minutes. […]

3Ub~RARA/RXRA substrate = test: In vitro ubiquitylation of pseudo-ubiquitylated RARA/RXRA; assay type: biochemical, human
Excerpt: Input UBR5 variants -50 RARA/RXRA (µM)[NCOA1 peptide] uM
250 NCOA1 peptide (fluorescein-labeled probe): 5-FAM-[…]
200 LxxLLs UBR5 peptides (unlabeled): […]
Unlabelled peptide (µM)UBR5 peptide (µM)
0.0 +RARA/RXRA + retinoic acid
H A-1 A-2 Name Expressed UBR5 construct […]
round kDa WT LxxA LxxA WT 1-2799 kDa Input Backg WT LxxAA-1 LxxAA-2 ∆ UBR ∆ tandem ∆ UBA 250 […]
Figure S5. Interaction ofUBR5with NRs and LxxLL motifs,Related to Figure 3
A. RARAreporter degradation in HEK293cells withCRISPR-editedUBR5 deficientof itsHECTdomain inthepresence or absenceof ATRA (n=3 two-sided ttest).B. Ubiquitylation assayof a pseudo-primedRARA/RXRAsubstrate, generated as His-3Ub~RARA and His-3Ub~RXRA linearfusions in E.coli.Wild type UBR5 can rapidly branch and extend Ub chains on the substrate, however indicated mutants of the UBA domain severely hinder chain extension. C. Fluorescence polarization (FP) experiment showing forward titrationof RARA/RXRA intoa fluorescein-labelled NCOA1 peptide (residues 686-698). […]
Fluorescence polarization experiments depicting competitive reverse titrationwith indicated peptides against a pre-formed complex of RARA/RXRA with a fluorescein-labelled peptide of NCOA1 (residues 686-698) in the presence of ATRA. Titrations were performed in duplicate and binding constants determined after converting fluorescence polarization values tofraction bound of originalcomplex. […]

## CC(C)C[C@@H](C=O)NC(=O)[C@H](CC(C)C)NC(=O)[C@H](CC(C)C)NC(=O)OCc1ccccc1 [MG132] (Cbz-Leu-Leu-Leu-aldehyde)
[1]
  effect of proteasomal inhibition (MG132) on ATRA-induced transcription: strongly decreased ATRA-induced transcription

## CC1=C(/C=C/C(C)=C\C=C\C(C)=C\C(=O)O)C(C)(C)CCC1 [RA]
RARA and UBR5
  RARA/UBR5 BRET luminescence: exhibited more luminescence than controls

## LQPYLRELLSAKD [UBR5 aa1098]
[2]
  Kapp: 41.4 ± 2.8 µM

## NCOA1: full-length NCOA1 protein
UBR5-RARA
  UBR5 binding to RARA in presence of excess NCOA1: impaired by an excess of full-length NCOA1

## RLDLLYRLLTATN [UBR5 aa1251]
[2]
  Kapp: 3.1 ± 0.1 µM

## UBR5^V196K: UBR5 with a substitution at the ubiquitin-binding interface
3Ub~RARA/RXRA substrate
  processivity in ubiquitylation assay: severely hindered processivity in ubiquitylation assays

## UBR5^Δ83–347: UBR5 lacking the UBA insertion entirely
3Ub~RARA/RXRA substrate
  processivity in ubiquitylation assay: severely hindered processivity in ubiquitylation assays
